Series [1] has as its target T1, human GPR14 receptor (Homo sapiens, UniProt Q9UKP6).
T1 construct: expressed in transfected cells; host or cells: CHO cells (CHOGPR14)
T1 sequence (Q9UKP6 1-389): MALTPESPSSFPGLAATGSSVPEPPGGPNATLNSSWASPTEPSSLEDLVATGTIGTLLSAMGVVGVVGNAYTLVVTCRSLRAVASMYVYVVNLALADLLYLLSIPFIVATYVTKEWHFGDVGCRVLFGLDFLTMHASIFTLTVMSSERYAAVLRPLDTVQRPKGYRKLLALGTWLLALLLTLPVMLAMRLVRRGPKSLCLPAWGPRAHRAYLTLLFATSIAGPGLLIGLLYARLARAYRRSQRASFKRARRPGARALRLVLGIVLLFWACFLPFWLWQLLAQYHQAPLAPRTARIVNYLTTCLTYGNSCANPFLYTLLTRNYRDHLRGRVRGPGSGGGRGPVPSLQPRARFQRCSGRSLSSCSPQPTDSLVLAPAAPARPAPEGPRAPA
The experiment in a line: FlipR test of intracellular calcium mobilization (CHO GPR14 cells, urotensin II 3 nM). The note with it: CHOGPR14 cells, inhibition of urotensin II (3 nM final) induced Ca2+ increase, Fluo-4AM. The series is classed as cell-based. The source says: (§1) The compounds according to the invention have undergone pharmacological testing for determining the properties of the compounds of the invention, including in particular: • a test in vitro of intracellular calcium mobilization (FlipR test) employing urotensin II antagonists (the compounds of the present invention) of the human GPR14 receptor, • a function test of contraction of rat aorta rings, also employing urotensin II antagonists represented by the compounds of the present invention.
1. FlipR (Fluorometric Imaging Plate Reader) Protocol
The purpose is to measure the activation of the GPR14 receptor by human urotensin II.
GPR14 is a Gq-coupled receptor with 7 transmembrane domains. Its activation by a specific ligand causes an increase in Ca^2+ in the cell via the PLC (Phospholipase C), IP3 (Inositol-1,4,5-triphosphate) DAG (Diacylglycerol) pathway. The increase in Ca^2+ in the cell is measured by means of the Fluo4AM permeating probe (mono-excitation, mono-emission probe) which binds to free Ca^2+ and emits at 520 nm. The free probe is non-fluorescent in the absence of Ca^2+.
1) Seeding of the cells on D−1 (Day−1) or D−2
2) Incorporation/loading (D0) of the probe (1 h)
3) Addition of the products to the FlipR and measurement
4) Addition of the ligand to the FlipR and measurement in the presence of the products
5) Processing and exporting the data
The cells are cultivated in complete medium in Flask T225. For the experiments, the cells are transplanted in 200 μl of culture medium in 96-well (black, transparent-bottom) plates at a rate of 60 000 cells/well for use on D+1 or 40 000 cells/well for use on D+2.
The Fluo-4AM is prepared at 20 mM then aliquots are taken (50 μl) and stored at −20° C. away from the light. A solution of pluronic acid at 200 mg/ml in DMSO is also prepared (it has a shelf life of one week at room temperature away from the light).
The cells are charged with the Fluo-4AM+pluronic acid mixture (aliquot 50 μl+50 μl of pluronic acid) diluted to 1/100 in the measurement buffer.
After washing the wells with 150 μl of measurement buffer (cf. annex), the cells are then charged as follows: • distribution of 100 μl of measurement buffer in each well • addition of 10 μl of the Fluo-4AM+pluronic acid mixture diluted to 1/100.
The cells are incubated for 1 h at 37° C. away from the light, in an incubator in the presence of 5% CO2.
The cells are then washed 3 times with 150 μl of measurement buffer to remove the excess of the probe. A volume of 150 μl of buffer is added to each well at the end of washing.
After incubating the plates for 20 min at room temperature away from the light, they are placed in the FlipR for measurement of fluorescence.
The level of basic incorporation of the Fluo-4 is checked for each plate (sd<10%) before the first injection.
After stabilization of the basic signal, the GPR14 inhibiting compounds are injected by the FlipR under a volume of 50 μl from a dilution plate effected with Biomek 2000 in measurement buffer. […] Data recording is carried out continuously throughout the experiment.
For each plate, the basic fluorescence before injection of the compounds is standardized by the “spatial uniformity correction” function of the FlipR. The values of fluorescence measured just before injection of urotensin II (min) and those of the fluorescence measured at the peak of the effect of urotensin II (max) are exported under Excel. In each plate, a series of wells is treated with urotensin alone in the absence of inhibitor compound. The min and max fluorescence values for these wells are averaged for defining 100% effect of urotensin II. The percentage inhibition calculated for each concentration of inhibitor is calculated as follows: • for each well with Uro II (urotensin II)+inhibitor, calculation of the delta product value=max−min • for the well with Uro II alone, calculation of the value delta Uro II (average max−average min) […]
For orientation: A change in cytosolic calcium serves as a functional read-out for many receptors and channels.

The target in series [2] is T2, urotensin II receptors (rat aorta rings) (Rattus norvegicus, UniProt P49684).
T2 construct: The aortas are removed, washed and, after removing the endothelium, are cut into 4 rings; from tissue; host or cells: rat thoracic aorta rings, endothelium removed (Sprague-Dawley)
T2 sequence (P49684 1-386): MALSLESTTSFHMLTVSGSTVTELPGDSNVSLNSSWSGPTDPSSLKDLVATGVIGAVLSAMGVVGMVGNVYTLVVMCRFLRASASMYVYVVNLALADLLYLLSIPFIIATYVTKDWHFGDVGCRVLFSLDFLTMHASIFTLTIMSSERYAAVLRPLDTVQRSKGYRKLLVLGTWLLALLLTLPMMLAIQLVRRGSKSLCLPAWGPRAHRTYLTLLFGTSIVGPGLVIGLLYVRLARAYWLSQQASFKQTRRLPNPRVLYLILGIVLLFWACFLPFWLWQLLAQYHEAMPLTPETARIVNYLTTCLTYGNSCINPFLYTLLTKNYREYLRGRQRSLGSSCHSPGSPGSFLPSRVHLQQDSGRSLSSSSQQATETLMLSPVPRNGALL
The experiment in a line: Contraction of rat aorta rings induced by human urotensin II. Conditions: endothelium-denuded Sprague-Dawley rat aorta rings, antagonist added 30 min before urotensin II, single concentration.
From the text: as §1
2. Contraction of Rat Aorta
Male Sprague-Dawley rats (400-500 g; C. River, France) are anaesthetized with 6% sodium pentobarbital (Ceva SantéAnimale) by intraperitoneal injection (0.4-0.5 ml), and then euthanized by exsanguination. The aortas are removed, washed and, after removing the endothelium, are cut into 4 rings of about 0.2-0.3 cm. Each fragment is placed in a container for isolated organs, containing 20 mL of Krebs solution with the following composition (mM): NaCl 118; KCl 4.7; MgCl2 1.2; CaCl2 2.6; NaHCO3 25; glucose 11.1; (pH=7.4).
The tissue, maintained at 37° and aerated with a stream of carbogen (95% O2-5% CO2), is connected to a Grass FT03 isometric sensor under a basic strain of 2 g, and to a Gould series 6600 amplifier for recording the variations in strain. Data acquisition is effected automatically on an HP Compaq PC using IOX software (version 2.2) from the company Emka.
After stabilization for 60 min, the viability of the preparation is tested by prestimulation with 60 mM of KCl. This contraction is repeated a second time and the strain that developed will serve as reference (100%) for standardizing the response to urotensin II.
The curve of concentration v. contractile response to urotensin II is then constructed cumulatively until a maximum response is obtained.
A single concentration-response curve is recorded owing to the desensitization effects induced by urotensin II.
The antagonists or the vehicle (DMSO 0.15% maximum) are added to the container 30 min before the agonist.
Human urotensin II is obtained from Bachem Ltd (UK) and is dissolved in 0.1% of BSA.
The responses are expressed as percentage of the maximum contraction observed with KCl. The results represent the mean+/−sem of the individual responses. N corresponds to the number of animals per batch.
Analysis of the sigmoid curves using the Everstat software (De Lean A, Munson P J, Rodbard D., Am J Physiol 1978; 235(2): E97-102.) permitted the EC50 (concentration producing 50% of the maximum response) and the Emax (maximum effect) to be determined.
To evaluate the potency of the antagonists based on a single concentration, the pKb were calculated according to the equation: pKb=−log [antagonist]M+log(concentration-ratio−1) (Furchgott R F, Blaschko H, Muscholl E, editors. Handbook of Exp Pharmacol, Catecholamines, Springer, Berlin Heidelberg N.Y.; 1972; 33:283-335) where concentration-ratio is the EC50 of the agonist in the presence of the antagonist divided by the EC50 of the agonist in the absence of the antagonist.
If several concentrations of antagonist are tested, the pA2 (±confidence limits) is calculated by the Schild plot method (Arunlakshana O and Schild H O, Br J Pharmacol, 1959; 14:48-58).

The record followed here is patent US8552201B2, “5, 6-bisaryl-2-pyridine-carboxamide derivatives, preparation and application thereof in therapeutics as urotensin II receptor antagonists” (Sanofi, priority 2006, dated 2013).

Structures are written as SMILES.

What is called melting point is the temperature, or range, at which the solid turns liquid. The term IC50 denotes the concentration at which inhibition is half-maximal. Usually Kb stands for the affinity of an antagonist, worked out from how it opposes an agonist. Higher therefore signals lower antagonist affinity.

Molecule `Cc1ccccc1-c1ccc(C(=O)NC2(C(=O)O)CCCCC2)nc1-c1ccc(Cl)c(OCCCN(C)C)c1.Cl` [compound 34, 1-({[6-{4-Chloro-3-[3-(dimethylamino)propoxy]phenyl}-5-(2-methylphenyl)pyridin-2-yl]carbonyl}amino)cyclohexanecarboxylic acid hydrochloride] showed a melting point of 146 to 150 °C. The IC50 in series [1] was 25 nM. Moreover, the Kb in series [2] was 79.4 nM.
